Reference: a melting point compilation (Tetko et al.; mined from patent text by program, amines drawn as free bases though some values may be those of a salt)

First: COc1ccc(C(=O)Nc2ccccc2)c2c1OCC2CC(=O)O (stereo unspecified)
Second: COc1ccc(CC2SC(=O)NC2=O)cc1CC(=O)Nc1ccc(Oc2ccccc2)cc1 (stereo unspecified)
The melting point of the first is higher: 248 to 251 °C for the first, 82 to 84 °C for the second.

First: OCC=Cc1cccc(-c2nnn[nH]2)c1
Second: CCc1n[nH]c2c1nc(-c1cccnc1)c1ccccc12
The melting point of the first is lower: 174 °C for the first, 219 to 220 °C for the second.

First: CN(C)S(=O)(=O)c1cccc(-c2ccnc(C(=O)N(O)Cc3ccccc3)c2)c1
Second: O=C(O)C(Cc1ccccc1)NC(=O)N1CCc2cc(S(=O)(=O)N3CCN(c4cccc(Cl)c4)CC3)ccc21 (stereo unspecified)
The melting point of the first is lower: 110 to 115 °C for the first, 134 to 135 °C for the second.

First: CCOC(=O)c1c(C)nn(-c2cccc(N)c2)c1C
Second: CCOC(=O)c1c(C)nc2scnc2c1N
The melting point of the first is lower: 93 to 95 °C for the first, 118 to 119 °C for the second.

First: Cc1nc(-n2cc(-c3ccsc3)nn2)sc1C(=O)NCc1ccccc1
Second: Oc1ncnc2c1c(Nc1cccc(Cl)c1)nn2Cc1ccccc1
The melting point of the first is lower: 123 to 126 °C for the first, 148 to 150 °C for the second.

Compared with `CCOC(=O)C[C@@H](C)NC(=O)N[C@H]1CCN(c2ccc(C#N)cc2)C1=O`, `CC(=O)OC1CCN2C(=O)N(c3ccc(C#N)c4ccccc34)C(=O)C12` (stereo unspecified) is lower in melting point: 178 to 179 °C for the first, 105 °C for the second.

Compared with `C=Cc1ccc(OC(=O)c2ccccc2)cc1`, `O=C(O)C1=Cc2ccc(Oc3ccccc3)cc2OC1C(F)(F)F` (stereo unspecified) is higher in melting point: 75 to 76 °C for the first, 180 to 181 °C for the second.

First: COc1cc2c(cc1OC)CC(N(CC(=O)O)C(=O)C(C)CSC(C)=O)C2 (stereo unspecified)
Second: CCOC(=O)N1CCOC(CNC(=O)c2cc(Cl)c(N)cc2OC)C1 (stereo unspecified)
The melting point of the first is lower: 135 to 137 °C for the first, 140 to 151 °C for the second.

Compared with `O=C1NCCN1Cc1ccc(Cl)cc1`, `N#Cc1[nH]c(-c2ccc(Cl)cc2)c(C#N)c1Br` is higher in melting point: 164 to 166 °C for the first, > 225 °C for the second.

First: O=C(CC(O)c1ccccc1)NCc1ccccc1[N+](=O)[O-] (stereo unspecified)
Second: CC1(COCc2ccccc2)COC(c2ccc([N+](=O)[O-])cc2)=N1 (stereo unspecified)
The melting point of the first is higher: 145 °C for the first, 65 to 66 °C for the second.

First: CNC(=S)C1=C(O)C2(CCOCC2)Oc2ccc([N+](=O)[O-])cc21
Second: CCCc1nc2c(N)nc3ccccc3c2n1CCC(=O)N1CCOCC1
The melting point of the first is higher: 217 to 218 °C for the first, 172 to 173 °C for the second.

First: OCC1Cc2c(ccc3c(-c4ccccc4)noc23)O1 (stereo unspecified)
Second: O=C(O)COc1ccc(SCc2cc(-c3ccc(Cl)cc3)on2)c2c1CCCO2
The melting point of the first is lower: 107 to 109 °C for the first, 131 to 133 °C for the second.

First: COc1ccc(CCN2CCc3cc(OCc4ccccc4)c(OC)cc3C2)cc1
Second: CC(C)(C)c1ccc(COc2ccc(CSc3ccc(OCC(=O)O)c4c3CCC4)cc2)cc1
The melting point of the first is lower: 88 to 89 °C for the first, 152 to 153 °C for the second.

Compared with `Cc1oc(-c2ccccc2)nc1COc1ccc2c(c1)CCC(C=C1SC(=O)NC1=O)=C2`, `c1ccc2cc(OCc3ccc4ccccc4n3)ccc2c1` is lower in melting point: 271 to 272 °C for the first, 100 to 102 °C for the second.

First: CC(CO)C(O)(Cn1cncn1)c1ccc(Cl)cc1Cl (single isomer, unassigned; (+))
Second: Cc1cnoc1-c1ccc2c(c1)c1cc(-c3ccc(Cl)cc3Cl)c(=O)n(C)c1n2C
The melting point of the first is lower: 110 to 111 °C for the first, 233 to 234 °C for the second.

First: Cc1c(N2CCC(C(N)c3cccnc3)C2)c(F)c(N)c2c(=O)c(C(=O)O)cn(C3CC3F)c12 (stereo unspecified)
Second: CN1CCN(c2cc3c(cc2F)c(=O)c(C(=O)O)cn3CCO)CC1
The melting point of the first is lower: 213 to 215 °C for the first, 270 °C for the second.

Compared with `CN(C)C(=O)Sc1ccccc1C(=O)c1ccc(C#N)cc1`, `CNC(=O)c1ccccc1-c1cc(C)no1` is higher in melting point: 102 °C for the first, 120 to 122 °C for the second.

First: O=C1c2ccccc2C(=O)N1CCCN1C(=O)C2(COc3cc4c(cc32)CCO4)c2ccccc21 (stereo unspecified)
Second: CCOC(=O)CCC1(NC(=O)c2ccc(Cl)c(Cl)c2)C(=O)N(CCCc2ccccc2)c2ccccc21 (stereo unspecified)
The melting point of the first is higher: 214 to 217 °C for the first, 120 to 122 °C for the second.

First: Cn1c2ccccc2c(=O)n2nc(C(=O)O)cc12
Second: Cn1c(CBr)c(C(=O)c2ccccc2)c(=O)n(C)c1=O
The melting point of the first is higher: 265 °C for the first, 164 to 167 °C for the second.

Compared with `CCCN(CCC)c1c([N+](=O)[O-])cc(C#N)c(C)c1[N+](=O)[O-]`, `Cn1nc(OC2c3cc(C#N)ccc3OC(C)(C)C2(C)O)ccc1=O` (stereo unspecified) is higher in melting point: 97 to 99 °C for the first, 197 to 199 °C for the second.

Compared with `CSc1ccc(CC#N)cc1`, `Cc1ccc(C(=NO)C(F)(F)F)cc1` is higher in melting point: 44 to 45 °C for the first, 54 to 68 °C for the second.

Compared with `CC(=O)OC1CSC(Oc2cncc(-c3ccc(C#N)c(Cl)c3)c2)C(OC(C)=O)C1OC(C)=O` (stereo unspecified), `CCCCOc1ccc(-c2ncc(C(=O)OCC)cn2)cc1` is lower in melting point: 148 to 150 °C for the first, 99.1 °C for the second.

Compared with `CC#CCOc1ccc(S(=O)(=O)NC2(C(=O)OC)CCCC2)cc1`, `CC(=O)N[C@@H]1CCCC[C@H]1NS(=O)(=O)c1ccc(C)cc1` (relative stereo) is higher in melting point: 81 to 83 °C for the first, 174 to 176 °C for the second.

First: CC(C)(C)OC(=O)NCCCBr
Second: CCCCCCC/C=C/C(=O)NCCC(C)C
The melting point of the first is higher: 40 °C for the first, 28 to 31 °C for the second.

First: C/C(=C\c1ccc(OCCN2CCOCC2)cc1)c1ccc2c(c1)SC(C)(C)S2
Second: CC(=O)NCc1ccc(CN2CCN(c3ccccc3)CC2)cc1N
The melting point of the first is lower: 90 to 91 °C for the first, 148 to 149 °C for the second.

First: O=C(O)C[C@H]1C[C@H](C(=O)O)Nc2cc(Cl)cc(Cl)c21 (relative stereo)
Second: CCOC(=O)c1cccn2c(C(=O)OCC)c(Cl)nc12
The melting point of the first is higher: 229 to 231 °C for the first, 105 to 106 °C for the second.

First: Cc1c(NC(=O)c2ccc(-c3ccc(F)cc3)cc2)ccc2cc(CN3CCCCCC3)cnc12
Second: Cc1cc(Nc2ccc(F)cc2)nc(Nc2ccc(S(=O)(=O)N(C)C3CCN(Cc4ccoc4)CC3)cc2)n1
The melting point of the first is higher: 166 to 168 °C for the first, 156 °C for the second.

First: CC(O)Cn1nc2c3c(cc(O)cc31)CCC2 (stereo unspecified)
Second: CON1CCC2(CC1)C(O)=C(c1cc(C)c(C)cc1Cl)C(=O)N2C
The melting point of the first is lower: 153 to 155 °C for the first, 191 to 192 °C for the second.

First: N#Cc1nn(-c2c(Cl)cc(-c3ccc(C(F)(F)F)cc3)cc2Cl)c(N)c1Br
Second: Nc1nc(N)c2c(ccc3c2ccn3Cc2ccc(OC(F)(F)F)cc2)n1
The melting point of the first is lower: 178 to 180 °C for the first, 205 to 208 °C for the second.

First: CN1CCN(C(=O)CCS)C(C(=O)O)C1 (stereo unspecified)
Second: Cc1ccc(C(=S)c2ccc3n2CCCC3C(=O)O)cc1 (stereo unspecified)
The melting point of the first is lower: 75 to 79 °C for the first, 174 to 175 °C for the second.

Compared with `CCn1c(=O)c2[nH]c(/C=C/c3ccc(N(C)C)cc3)nc2n(CC)c1=O`, `CCOc1cc(C(CC(=O)CC)N2C(=O)c3cccc(NC(C)=O)c3C2=O)ccc1OC` (stereo unspecified) is lower in melting point: > 300 °C for the first, 137 to 139 °C for the second.

First: CS(=O)(=O)c1ccc(C(CC2CCCC2)C(=O)Nc2ccc3ccccc3n2)cc1Br (stereo unspecified)
Second: CCC1c2cc(F)ccc2-c2ccccc2N1S(=O)(=O)c1ccc(OC(=O)CC(C)(C)C)cc1 (stereo unspecified)
The melting point of the first is lower: 95 to 100 °C for the first, 128 °C for the second.

First: CC(=O)OCc1[nH]c2c(c1C)C(=O)C(N1CC1)=C(C)C2=O
Second: COC(=O)C1=C(C)NC(C)=C(C(=O)OCc2ccc(OC)cc2)C1c1ccccc1[N+](=O)[O-] (stereo unspecified)
The melting point of the first is higher: 210 to 212 °C for the first, 152 °C for the second.

First: CCCCNC(=O)[C@@H](C[C@H](O)[C@H](CC1CCCCC1)NC(=O)[C@H](Cc1cscn1)NC(=O)[C@@H](CC(=O)N1CCOCC1)Cc1ccccc1)C(C)(C)O
Second: CC(=CC(=O)NCCCCCC(=O)NO)c1ccccc1
The melting point of the first is lower: 92 to 95 °C for the first, 131 to 133 °C for the second.

First: O=c1[nH]c2cccnc2n1-c1ccccc1
Second: O=c1nc(N2CCCc3c(Br)cccc32)sc2ncccc12
The melting point of the first is higher: 233 to 235 °C for the first, 173 to 174 °C for the second.

Compared with `CN(CCCCP(=O)(O)O)S(=O)(=O)C(F)(F)C(F)(F)C(F)(F)C(F)(F)C(F)(F)C(F)(F)C(F)(F)C(F)(F)F`, `NC(=O)CNC(=O)c1cccc(-c2cccc3cc(Cc4cccc(C(F)(F)F)c4)sc23)c1` is lower in melting point: 150 to 163 °C for the first, 147 to 148 °C for the second.

Compared with `COc1cccc2c(O)c(C)c(C)nc12`, `CSc1cnc2c(C)c(C)sc2c1O` is lower in melting point: > 290 °C for the first, 233 to 236 °C for the second.

Compared with `C#CC(C)(C)OC(=O)Nc1ccc(-c2ncn(-c3ccc(OC(F)(F)F)cc3)n2)cc1`, `CCCCNC(=O)Oc1ccc(Oc2ccc(OC)cc2)cc1` is lower in melting point: 164 to 165 °C for the first, 63 to 64 °C for the second.

`CCOc1cccc(NC(=O)NC2N=C(c3ccccc3F)c3ccccc3N(CC(=O)N3CC4CCC(CC4)C3)C2=O)c1` (stereo unspecified) and `O=C(NC1CCCc2ccccc21)c1ccc2n1Cc1ccccc1N(C(=O)CSc1ccc(Br)cc1)C2` (stereo unspecified) cannot be ordered by melting point: 158 to 166 °C for the first, 163 to 165 °C for the second.

First: NC(=S)Nc1cc(Cl)cc(Cl)c1
Second: NC(=O)C1(c2c(F)cccc2Cl)CC1
The melting point of the first is higher: 180 °C for the first, 98 to 102 °C for the second.

First: CC(=O)Nc1ccc(N2CCNCC2)cc1
Second: NC(=O)n1nc(-c2ccc(F)cc2)cc1N
The melting point of the first is higher: 191 to 193 °C for the first, 140 °C for the second.

First: Cc1sc(N)c(C#N)c1Cl
Second: CCCC(=O)Nc1ccc2nc(S(N)(=O)=O)sc2c1
The melting point of the first is lower: 158 °C for the first, 246 to 247 °C for the second.

Compared with `CC(=O)NCCOC(=O)C(Oc1cccc(C(F)(F)F)c1)c1ccc(Cl)cc1` (stereo unspecified), `O=C(N[C@H](Cc1ccc(C(F)(F)F)cc1)[C@@H](O)c1cccc(F)c1)c1cccc2c1C=CCCC2` (racemic) is higher in melting point: 93 to 95 °C for the first, 151 to 152 °C for the second.

First: C=CCN(CC=C)Cc1noc(-c2ncn3c2CN(C)C(=O)c2ccccc2-3)n1
Second: COC(=O)c1ncn2c1[C@@H]1CCCN1C(=O)c1ccccc1-2
The melting point of the first is higher: 203 to 205 °C for the first, 165 to 167 °C for the second.

First: Cc1nc2cc(C)c(C)cc2c(=O)[nH]1
Second: COc1cc(Cl)c2[nH]c(=O)[nH]c(=O)c2c1OC
The melting point of the first is higher: 310 to 312 °C for the first, 282 to 284 °C for the second.

First: Cc1cc(C)c(C2Cc3cc(NC(=O)CC(C)(C)C)cc(Cc4ccc(C(C)C)cc4)c3O2)cc1CO (stereo unspecified)
Second: Cc1c(C)c2c(c(C)c1O)CCC(C)(CCOc1ccc(CC3SC(=O)NC3=O)cc1)O2 (stereo unspecified)
The melting point of the first is lower: 136 to 137 °C for the first, 152 to 154 °C for the second.

First: CCN(CC)C(=O)c1c(CO)cccc1[Si](C)(C)C
Second: COC(=O)Cc1cc(OC)ccc1C(C)=O
The melting point of the first is higher: 81 to 82.5 °C for the first, 74 to 76 °C for the second.

Compared with `COC(=O)C1=C(S(N)(=O)=O)CCC1`, `C=CC(C)ONC(=O)c1nc(-c2ccc(Cl)c(OC)c2F)cc(N)c1Cl` (stereo unspecified) is higher in melting point: 83 to 84 °C for the first, 176 to 179 °C for the second.

Compared with `Cc1cc(CCCCCOc2ccc(-c3nnco3)cc2)on1`, `O=C(O)c1cccc(Oc2ccnc(Cl)c2)n1` is higher in melting point: 84 to 86 °C for the first, 183 °C for the second.

First: O=C1CC=C(c2ccccc2Cl)c2cc(Cl)ccc2N1
Second: Oc1ccc(-c2cc(O)ccc2-c2cc3cc(O)ccc3o2)cc1
The melting point of the first is lower: 171 °C for the first, 238 to 239 °C for the second.

Work on `OCC(O)Cc1ncc[nH]1` (stereo unspecified) yielded a melting point of 98 to 100 °C.
